Key:
Format in all cases: cell-based, mouse
[1] = system: CD8^+ T-lymphocytes; assay: IFN-γ and IL-2 protein in media; conditions: 0.5 mM, 24 h
Description: (§1) Total splenocytes were activated for 48 h with 1000 nM SIINFEKL and then expanded for a further 4 days in the presence of IL-2 followed by treatment 0.5 mM of S-2HG-octyl R-2HG-octyl ester ester for 24 h. OT-I CD8^+ T-lymphocytes were incubated with target and control cells for 4 hours. n=3 mice per condition. […] Cells were activated for 48 h with αCD3+αCD28 antibodies and then expanded for a further 4 days in the presence of IL-2 followed by treatment with the indicated concentration of S-2HG-octyl ester or R-2HG-octyl ester for 24 hours. n≥16 mice.
CD8^+ T-cells were expanded for 4 days and then treated for 16 h with S-2HG octyl ester or R-2HG octyl ester. Glucose and lactate levels in culture medium were measured with a Dade-Behring Dimension RXL analyser. Changes in metabolite concentrations relative to fresh media were normalized to viable cell counts. VEGF, IL-2 and IFN-γ protein levels in media were determined using the following kits from MesoScale Discovery: K150BMC-2 for VEGF, K15048D-2 for IFN-γ and K152QQD-2 for IL-2. Values were normalized to viable cell counts.

[2] = system: EG7-OVA cells; assay: In vitro cytotoxicity assay (specific killing by OT-I CD8+ T-lymphocytes); conditions: 0.5 mM for 24 h, 4 hours with target and control cells
Description: as §1
Total splenocytes from OT-I mice were activated with SIINFEKL-peptide for 48 h and expanded for a further 4 days in IL-2 containing medium. OT-I-specific CD8^+ T-cells were then treated for 24 h with or without 0.5 mM S-2HG-octyl ester or R-2HG-octyl ester and then incubated with target (EG7-OVA, CFSE-low) and control (EL4, CFSE high) cells. Specific lysis was calculated by normalization of the loss in signal of the CFSE-low population relative to the CFSE-high population after co-culture of 4 hours with the vehicle or S-2HG-octyl ester or R-2HG-octyl ester-treated OT-I-specific CD8^+ T-cells.

[3] = system: OT-I CD8^+ T-lymphocytes; assay: Survival in the absence of IL-2 supplementation; conditions: 0.5 mM
Description: OT-I CD8^+ T-lymphocytes were incubated with target and control cells for 4 hours. n=3 mice per condition. […]
(§2) Cells were counted on an ADAM-MC automated cell counter (NanoEnTek) and viability was assessed by the exclusion of propidium iodide. Cell volume was determined using a Z2 Coulter counter (Beckman Coulter).

[4] = system: CD8^+ T-lymphocytes; assay: qRT-PCR of differentiation, memory and pluripotency associated genes; conditions: 0.5 mM; for transcript levels of Eomes, acute treatment: 24 h; for expression of pluripotency associated genes (Oct3/4, Sox2, Nanog, Klf4): with IL2; for Il2 and Ifng mRNA expression: 24 h or 7 days; for Eomes expression levels after continuous treatment: 7 days
Description: FIGS. 8E, 8F and 8G show expression of II2(8E), Ifng (8F), and Eomes (8G) mRNA in CD8^+ T-lymphocytes activated for 48 h with αCD3+αCD28 antibodies and then expanded for a further 2 days in the presence of IL-2. Cells were then treated for either 24 h or 7 days with or without 0.5 mM S-2HG-octyl ester or R-2HG-octyl ester. n≥4 mice per group.
Activated CD8^+ T-lymphocytes were treated with 0.5 mM of either S-2HG-octyl ester or R-2HG-octyl ester for 1 day or 7 days in the presence of IL2. The induction seen with R-2HG-octyl ester is weaker than with S-2HG-octyl ester. Each dot represents an individual donor mouse, n=4 mice. error bars denote the s.d.
RNA was isolated using the RNeasy kit (Qiagen). 1 μg of RNA was used for cDNA synthesis with the First-Strand Synthesis kit (Invitrogen). All samples were run in technical triplicates using a StepOnePlus system (Applied Biosystems) with SYBR green.

[5] = system: CD8^+ T-lymphocytes; assay: Proliferation after activation (CFSE dilution, viable cell number); conditions: 0.5 mM; for proliferation following activation: with IL-2
Description: Data are representative of 4 mice.
Cells were then treated with 0.5 mM S-2HG-octyl ester, 0.5 mM R-2HG-octyl ester or vehicle and counting was performed at indicated time points after initiation of treatment. n=8 mice per condition.
as §2

[6] = system: HIF-1α; assay: Immunoblot of nuclear fractions for HIF-1α in treated CD8+ T-lymphocytes; conditions: for abundance of HIF-1α protein at 7 days of continuous treatment: 0.5 mM
Description: FIG. 6A showns immunoblot analysis for HIF-1α, HDAC1, phospho-PDH E1α (S232) and total PDH-E1α in response to increasing concentrations of S-2HG-octyl ester or R-2HG-octyl ester, or 10 mM of the free acid forms of S-2HG or R-2HG for 16 hours. Cells were activated for 48 h with αCD3+αCD28 antibodies and then expanded for a further 4 days in the presence of IL-2 followed by treatment with the indicated concentration of S-2HG-octyl ester or R-2HG octyl ester, or 10 mM of the free acid forms of S-2HG or R-2HG for 16 hours. The arrow indicates HIF-1α protein.
The arrow indicates HIF-2a protein.
Nuclear and cytosolic fractions were prepared from cells with the NE-PER kit (Thermo Scientific) and separated by SDS-PAGE. Proteins were transferred to PVDF membranes and then blocked in 5% milk prepared in phosphate-buffered saline (PBS) plus 0.05% Tween 20. Membranes were then incubated with primary antibodies overnight at 4° C. and horseradish peroxidase (HRP)-conjugated secondary antibodies for 1 h the next day. The following primary antibodies were used at a dilution of 1:1000: HIF1α (Novus), HIF2α (Novus), PDH-E1α (Abcam), PDH-E1α pS232 (Calbiochem), LaminB1 (Abcam), HDAC1 (Abcam), β-tubulin (Abcam), 4E-BP1 (Cell Signalling), phospho-4E-BP1 (S65) (Cell Signalling), phospho-4E-BP1 (T37/T46) (Cell Signalling) S6K (Cell Signalling), phopho-S6K (T389) (Cell Signalling), phopho-S6K (S371) (Cell Signalling).

| Structure (SMILES) | production of interleukin-2 (IL-2) [1] | secretion of interferon-γ (IFN-γ) [1] | lytic ability of antigen specific OT-I CD8+ T-cells [2] | ability to survive in the absence of IL-2 supplementation [3] | expression of memory associated transcripts (including Ccr7) [4] | transcript levels of Eomes, acute treatment [4] | induction of pluripotency associated genes compared with S-2HG-octyl ester ([4]; 1 day or 7 days) | expression of pluripotency associated genes (Oct3/4, Sox2, Nanog, Klf4) ([4]; 1 day or 7 days) | Il2 and Ifng mRNA expression [4] | Eomes expression levels after continuous treatment [4] | restriction in proliferation compared with S-2HG-octyl ester [5] | proliferation following activation [5] | abundance of HIF-1α protein at 7 days of continuous treatment [6] | HIF-1α stabilization ([6]; increasing concentrations of octyl ester, 16 hours, activated CD8+ T-lymphocytes) |
| --- | --- | --- | --- | --- | --- | --- | --- | --- | --- | --- | --- | --- | --- | --- |
| CCCCCCCCOC(=O)[C@H](O)CCC(=O)O [R-2HG-octyl ester] | increased | decreased | markedly lower | elevated ability to survive | increased | represses | weaker | induces the expression | mediated at the transcriptional level | higher expression levels | less pronounced | decreasing proliferation | increase in abundance is seen | – |
| CCCCCCCCOC(=O)[C@@H](O)CCC(=O)O [S-2HG-octyl ester, S-2HG octyl ester] | increased | decreased | markedly lower | elevated ability to survive | increased | represses | – | induces the expression | mediated at the transcriptional level | higher expression levels | – | decreasing proliferation | increase in abundance is seen | stabilized |
